Assay results reported in patent publication US20110060009A1, “Hydroxamate-Based Inhibitors of Deacetylases” (NOVARTIS AG, priority 2009, published 2011).

Key:
HDAC-1 = molecular target: T1, HDAC-1 (Homo sapiens, UniProt Q13547); experiment: HDAC Inhibition Assay (purified GST-HDAC protein); format: biochemical
T1 construct: made in house; host or cells: Sf9 or Sf21 insect cells (baculovirus, donor vector pFB-GSTX3)
From the text: The baculovirus donor vector pFB-GSTX3 is used to generate a recombinant baculovirus that expresses the HDAC polypeptide. Transfer vectors containing the HDAC coding region are transfected into the DH10Bac cell line (GIBCO) and plated on selective agar plates. Colonies without insertion of the fusion sequence into the viral genome (carried by the bacteria) are blue. Single, white colonies are picked and viral DNAs (bacmid) are isolated from the bacteria by standard plasmid purification procedures. Sf9 cells or Sf21 (American Type Culture Collection) cells are then transfected in […] flasks with the viral DNA using Cellfectin reagent.
Virus-containing media is collected from the transfected cell culture and used for infection to increase its titer. Virus-containing media obtained after two rounds of infection is used for large-scale protein expression. For large-scale protein expression 100 cm^2 round tissue culture plates are seeded with 5×10^7 cells/plate and infected with 1 mL of virus-containing media (at an approximately MOI of 5). After 3 days, the cells are scraped off the plate and centrifuged at 500 rpm for 5 minutes. Cell pellets from 10-20, 100 cm^2 plates, are re-suspended in 50 mL of ice-cold lysis buffer (25 mM tris-HCl, pH 7.5, 2 mM EDTA, 1% NP-40, 1 mM DTT, 1 mM P MSF). The cells are stirred on ice for 15 minutes and then centrifuged at 5,000 rpms for 20 minutes.
The centrifuged cell lysate is loaded onto a 2 mL glutathione-sepharose column (Pharmacia) and is washed thrice with 10 mL of 25 mM tris-HCl, pH 7.5, 2 mM EDTA, 1 mM DTT, 200 mM NaCl. The GST-tagged proteins are then eluted by 10 applications (1 mL each) of 25 mM tris-HCl, pH 7.5, 10 mM reduced-glutathione, 100 mM NaCl, 1 mM DTT, 10% glycerol and stored at −70° C.
HDAC assays with purified GST-HDAC protein are carried out in a final volume of 30 μL containing 15 ng of GST-HDAC protein, 20 mM tris-HCl, pH 7.5, 1 mM MnCl2, 10 mM MgCl2, 1 mM DTT, 3 μg/mL poly(Glu,Tyr) 4:1, 1% DMSO, 2.0 μM ATP (γ-[^33P]-ATP 0.1 μCi). The activity is assayed in the presence or absence of inhibitors. The assay is carried out in 96-well plates at ambient temperature for 15 minutes under conditions described below and terminated by the addition of 20 μL of 125 mM EDTA. Subsequently, 40 μL of the reaction mixture are transferred onto EMMOBILON-PVDF membrane (Millipore) previously soaked for 5 minutes with methanol, rinsed with water, then soaked for 5 minutes with 0.5% H3PO4 and mounted on vacuum manifold with disconnected vacuum source. After spotting all samples, a vacuum is connected and each well-rinsed with 200 μL 0.5% H3PO4. Membranes are removed and washed four times on a shaker with 1.0% H3PO4, once with ethanol. Membranes are counted after drying at ambient temperature, mounting in Packard TopCount 96-well frame, and addition of 10 μL/well of MICROSCINT™ (Packard). IC50 values are calculated by linear regression analysis of the percentage inhibition of each compound in duplicate, at 4 concentrations (usually 0.01, 0.1, 1 and 10 μM).
• Input: 3×4 μL stopped assay on IMMOBILON membrane, not washed • Background (3 wells): assay with H2O instead of enzyme • Positive control (4 wells): 3% DMSO instead of compound • Bath control (1 well): no reaction mix
IC50 values are calculated by logarithmic regression analysis of the percentage inhibition of each compound at 4 concentrations (usually 3- or 10-fold dilution series starting at 10 μM). In each experiment, the actual inhibition by reference compound is used for normalization of IC50 values to the basis of an average value of the reference inhibitor:
Normalized IC50=measured IC50 average ref. IC50/measured ref. IC50

HCT116 = HCT116 IC50 (Table 2, no method described); format: cell-based; conditions: Homo sapiens, HCT-116

T1 sequence (Q13547 whole entry, species assumed): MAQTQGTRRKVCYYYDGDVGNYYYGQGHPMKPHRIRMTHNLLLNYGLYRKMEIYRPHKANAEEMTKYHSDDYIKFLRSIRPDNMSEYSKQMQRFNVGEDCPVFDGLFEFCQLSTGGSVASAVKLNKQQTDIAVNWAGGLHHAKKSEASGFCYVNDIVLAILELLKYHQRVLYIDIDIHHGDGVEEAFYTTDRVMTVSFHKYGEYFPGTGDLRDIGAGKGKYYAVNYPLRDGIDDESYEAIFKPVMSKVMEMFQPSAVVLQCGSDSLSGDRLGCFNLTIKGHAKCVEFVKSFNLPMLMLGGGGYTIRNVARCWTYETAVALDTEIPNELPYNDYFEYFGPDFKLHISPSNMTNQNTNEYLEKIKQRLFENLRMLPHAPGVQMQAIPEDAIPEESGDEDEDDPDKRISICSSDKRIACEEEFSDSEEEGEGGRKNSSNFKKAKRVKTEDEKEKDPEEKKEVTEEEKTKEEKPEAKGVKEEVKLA

Compound	IC50 (HDAC-1) [nM]	IC50 (HCT116) [nM]
O=C(/C=C/c1ccc(CN2CCC[C@H]2C(=O)c2c[nH]c3ccccc23)cc1)NO [Cpd 11, (E)-N-Hydroxy-3-{4-[(S)-2-(1H-indole-3-carbonyl)-pyrrolidin-1-ylmethyl]-phenyl}-acrylamide]	56	560
Cc1[nH]c2ccccc2c1C[C@H]1CCCN1[C@H](C)c1ccc(/C=C/C(=O)NO)cc1 [Cpd 15, (E)-N-Hydroxy-3-(4-{(R)-1-[(R)-2-(2-methyl-1H-indol-3-ylmethyl)-pyrrolidin-1-yl]-ethyl}-phenyl)-acrylamide]	1	3
O=C(/C=C/c1ccc(CN2CCC[C@@H]2Cc2c[nH]c3ccccc23)cc1)NO [Cpd 2, (E)-N-Hydroxy-3-{4-[(R)-2-(1H-indol-3-ylmethyl)-pyrrolidin-1-ylmethyl]-phenyl}-acrylamide]	0.65	3
O=C(/C=C/c1ccc(CN2CCC[C@H]2C(=O)N2CCc3ccccc32)cc1)NO [Cpd 18, (E)-3-{4-[(S)-2-(2,3-Dihydro-indole-1-carbonyl)-pyrrolidin-1-ylmethyl]-phenyl}-N-hydroxy-acrylamide]	350	7000
Cc1[nH]c2ccccc2c1C[C@H]1C[C@H](O)CN1Cc1ccc(/C=C/C(=O)NO)cc1 [Cpd 21, (E)-N-Hydroxy-3-{4-[(2S,4S)-4-hydroxy-2-(2-methyl-1H-indol-3-ylmethyl)-pyrrolidin-l-ylmethyl]-phenyl}-acrylamide]	0.7	1
Cc1[nH]c2ccccc2c1C[C@H]1CCCN1[C@@H](C)c1ccc(/C=C/C(=O)NO)cc1 [Cpd 14, (E)-N-Hydroxy-3-(4-{(S)-1-[(R)-2-(2-methyl-1H-indol-3-ylmethyl)-pyrrolidin-1-yl]-ethyl}-phenyl)-acrylamide]	1.3	2.4
Cc1cc(C)n(C[C@H]2CCCN2Cc2ccc(/C=C/C(=O)NO)cc2)n1 [Cpd 50, (E)-3-{4-[(R)-2-(3,5-Dimethyl-pyrazol-1-ylmethyl)-pyrrolidin-1-ylmethyl]-phenyl}-N-hydroxy-acrylamide]	3	4
O=C(/C=C/c1ccc(CN2CCC[C@@H]2Cc2c[nH]c3ccccc23)c(F)c1)NO [Cpd 9, (E)-3-{3-Fluoro-4-[(R)-2-(1H-indol-3-ylmethyl)-pyrrolidin-1-ylmethyl]-phenyl}-N-hydroxy-acrylamide]	1.3	3
